Activity calls are given as the source filed them. The rule behind the calls is not given here.
Test system: CCRIS mutagenicity, Ames/micronucleus/aberration tests
Assay: CCRIS mutagenicity studies
[1] = Test System: AMES SALMONELLA TYPHIMURIUM, Strain/Indicator: TA98, Metabolic Activation: NONE, Method: PREINCUBATION
[2] = Test System: AMES SALMONELLA TYPHIMURIUM, Strain/Indicator: TA98, Metabolic Activation: NONE, Method: STANDARD PLATE
[3] = Test System: AMES SALMONELLA TYPHIMURIUM, Strain/Indicator: TA98, Metabolic Activation: RAT, LIVER, S-9, AROCLOR 1254, Method: STANDARD PLATE
[4] = Test System: AMES SALMONELLA TYPHIMURIUM, Strain/Indicator: TA100, Metabolic Activation: NONE, Method: STANDARD PLATE
[5] = Test System: AMES SALMONELLA TYPHIMURIUM, Strain/Indicator: TA100, Metabolic Activation: RAT, LIVER, S-9, AROCLOR 1254, Method: STANDARD PLATE

ON=C1CCCCC1
mutagenic call (Test System: AMES SALMONELLA TYPHIMURIUM, Strain/Indicator: TA97, Metabolic Activation: HAMSTER, LIVER, S-9, AROCLOR 1254 (30%), Method: PREINCUBATION): inactive; negative
mutagenic call (Test System: AMES SALMONELLA TYPHIMURIUM, Strain/Indicator: TA97, Metabolic Activation: NONE, Method: PREINCUBATION): inactive; negative
mutagenic call (Test System: AMES SALMONELLA TYPHIMURIUM, Strain/Indicator: TA97, Metabolic Activation: RAT, LIVER, S-9, AROCLOR 1254 (30%), Method: PREINCUBATION): inactive; negative
mutagenic call (Test System: AMES SALMONELLA TYPHIMURIUM, Strain/Indicator: TA98, Metabolic Activation: HAMSTER, LIVER, S-9, AROCLOR 1254 (30%), Method: PREINCUBATION): inactive; negative
mutagenic call (Test System: AMES SALMONELLA TYPHIMURIUM, Strain/Indicator: TA98, Metabolic Activation: HAMSTER, LIVER, S-9, AROCLOR 1254, Method: STANDARD PLATE): inactive; negative
mutagenic call [1]: inactive; negative
mutagenic call [2]: inactive; negative
mutagenic call (Test System: AMES SALMONELLA TYPHIMURIUM, Strain/Indicator: TA98, Metabolic Activation: RAT, LIVER, S-9, AROCLOR 1254 (30%), Method: PREINCUBATION): inactive; negative
mutagenic call [3]: inactive; negative
mutagenic call (Test System: AMES SALMONELLA TYPHIMURIUM, Strain/Indicator: TA100, Metabolic Activation: HAMSTER LIVER S-9, AROCLOR 1254, Method: PREINCUBATION): inactive; negative
mutagenic call (Test System: AMES SALMONELLA TYPHIMURIUM, Strain/Indicator: TA100, Metabolic Activation: HAMSTER, LIVER, S-9, AROCLOR 1254 (30%), Method: PREINCUBATION): inactive; negative
mutagenic call (Test System: AMES SALMONELLA TYPHIMURIUM, Strain/Indicator: TA100, Metabolic Activation: HAMSTER, LIVER, S-9, AROCLOR 1254, Method: STANDARD PLATE): inactive; negative
mutagenic call (Test System: AMES SALMONELLA TYPHIMURIUM, Strain/Indicator: TA100, Metabolic Activation: NONE, Method: PREINCUBATION): inactive; negative
mutagenic call [4]: inactive; negative
mutagenic call (Test System: AMES SALMONELLA TYPHIMURIUM, Strain/Indicator: TA100, Metabolic Activation: RAT, LIVER, S-9, AROCLOR 1254 (30%), Method: PREINCUBATION): inactive; negative
mutagenic call [5]: inactive; negative
mutagenic call (Test System: AMES SALMONELLA TYPHIMURIUM, Strain/Indicator: TA1535, Metabolic Activation: HAMSTER LIVER S-9, AROCLOR 1254, Method: PREINCUBATION): active; positive
mutagenic call (Test System: AMES SALMONELLA TYPHIMURIUM, Strain/Indicator: TA1535, Metabolic Activation: HAMSTER, LIVER, S-9, AROCLOR 1254 (5,10 OR 30%), Method: PREINCUBATION): active; positive
mutagenic call (Test System: AMES SALMONELLA TYPHIMURIUM, Strain/Indicator: TA1535, Metabolic Activation: HAMSTER, LIVER, S-9, AROCLOR 1254, Method: STANDARD PLATE): inactive; negative
mutagenic call (Test System: AMES SALMONELLA TYPHIMURIUM, Strain/Indicator: TA1535, Metabolic Activation: NONE, Method: STANDARD PLATE): inactive; negative
mutagenic call (Test System: AMES SALMONELLA TYPHIMURIUM, Strain/Indicator: TA1535, Metabolic Activation: RAT, LIVER, S-9, AROCLOR 1254 (30%), Method: PREINCUBATION): inactive; negative
mutagenic call (Test System: AMES SALMONELLA TYPHIMURIUM, Strain/Indicator: TA1535, Metabolic Activation: RAT, LIVER, S-9, AROCLOR 1254, Method: STANDARD PLATE): inactive; negative
mutagenic call (Test System: AMES SALMONELLA TYPHIMURIUM, Strain/Indicator: TA1537, Metabolic Activation: HAMSTER, LIVER, S-9, AROCLOR 1254, Method: STANDARD PLATE): inactive; negative
mutagenic call (Test System: AMES SALMONELLA TYPHIMURIUM, Strain/Indicator: TA1537, Metabolic Activation: NONE, Method: STANDARD PLATE): inactive; negative
mutagenic call (Test System: AMES SALMONELLA TYPHIMURIUM, Strain/Indicator: TA1537, Metabolic Activation: RAT, LIVER, S-9, AROCLOR 1254, Method: STANDARD PLATE): inactive; negative
mutagenic call (Test System: AMES SALMONELLA TYPHIMURIUM, Strain/Indicator: TA1538, Metabolic Activation: HAMSTER, LIVER, S-9, AROCLOR 1254, Method: STANDARD PLATE): inactive; negative
mutagenic call (Test System: AMES SALMONELLA TYPHIMURIUM, Strain/Indicator: TA1538, Metabolic Activation: NONE, Method: STANDARD PLATE): inactive; negative
mutagenic call (Test System: AMES SALMONELLA TYPHIMURIUM, Strain/Indicator: TA1538, Metabolic Activation: RAT, LIVER, S-9, AROCLOR 1254, Method: STANDARD PLATE): inactive; negative
mutagenic call (Test System: MOUSE LYMPHOMA, Strain/Indicator: L5178Y (TK+/TK-), Metabolic Activation: NONE, Method: SUSPENSION/PLATE): active; positive. reevaluation of results: positive
mutagenic call (Test System: MOUSE LYMPHOMA, Strain/Indicator: L5178Y (TK+/TK-), Metabolic Activation: RAT, LIVER, S-9, AROCLOR 1254, Method: SUSPENSION/PLATE): inactive; negative. reevaluation of results: negative

O=C1c2ccccc2-c2ccc([N+](=O)[O-])cc21
mutagenic call (Test System: AMES SALMONELLA TYPHIMURIUM, Strain/Indicator: TA98 (1,8-DNP6), Metabolic Activation: NONE, Method: PREINCUBATION): active; positive
mutagenic call (Test System: AMES SALMONELLA TYPHIMURIUM, Strain/Indicator: TA98(1,8-DNP6), Metabolic Activation: NONE, Method: STANDARD PLATE): active; positive
mutagenic call (Test System: AMES SALMONELLA TYPHIMURIUM, Strain/Indicator: TA98 (NR), Metabolic Activation: NONE, Method: PREINCUBATION): active; positive
mutagenic call (Test System: AMES SALMONELLA TYPHIMURIUM, Strain/Indicator: TA98(NR), Metabolic Activation: NONE, Method: STANDARD PLATE): active; positive
mutagenic call (Test System: AMES SALMONELLA TYPHIMURIUM, Strain/Indicator: TA98(NR), Metabolic Activation: RAT LIVER S-9 (10%), Method: PREINCUBATION): active; positive
mutagenic call (Test System: AMES SALMONELLA TYPHIMURIUM, Strain/Indicator: TA98(NR), Metabolic Activation: RAT LIVER S-9, 3-METHYLCHOLANTHRENE (10%), Method: PREINCUBATION): active; positive
mutagenic call (Test System: AMES SALMONELLA TYPHIMURIUM, Strain/Indicator: TA98(NR), Metabolic Activation: RAT LIVER S-9, BETA-NAPHTHAFLAVONE (10%), Method: PREINCUBATION): active; positive
mutagenic call (Test System: AMES SALMONELLA TYPHIMURIUM, Strain/Indicator: TA98(NR), Metabolic Activation: RAT LIVER S-9, PCB (10%), Method: PREINCUBATION): active; positive
mutagenic call (Test System: AMES SALMONELLA TYPHIMURIUM, Strain/Indicator: TA98(NR), Metabolic Activation: RAT LIVER S-9, PHENOBARBITAL (10%), Method: PREINCUBATION): active; positive
mutagenic call [1]: active; positive
mutagenic call [2]: active; positive
mutagenic call [3]: active; positive
mutagenic call [4]: active; positive
mutagenic call [5]: active; positive
mutagenic call (Test System: AMES SALMONELLA TYPHIMURIUM, Strain/Indicator: TA1538, Metabolic Activation: NONE): active; positive
mutagenic call (Test System: AMES SALMONELLA TYPHIMURIUM, Strain/Indicator: TA7001, Metabolic Activation: NONE, Method: PREINCUBATION): inactive; negative
mutagenic call (Test System: AMES SALMONELLA TYPHIMURIUM, Strain/Indicator: TA7002, Metabolic Activation: NONE, Method: PREINCUBATION): active; positive
mutagenic call (Test System: AMES SALMONELLA TYPHIMURIUM, Strain/Indicator: TA7003, Metabolic Activation: NONE, Method: PREINCUBATION): inactive; negative
mutagenic call (Test System: AMES SALMONELLA TYPHIMURIUM, Strain/Indicator: TA7004, Metabolic Activation: NONE, Method: PREINCUBATION): active; positive
mutagenic call (Test System: AMES SALMONELLA TYPHIMURIUM, Strain/Indicator: TA7005, Metabolic Activation: NONE, Method: PREINCUBATION): active; positive
mutagenic call (Test System: AMES SALMONELLA TYPHIMURIUM, Strain/Indicator: TA7006, Metabolic Activation: NONE, Method: PREINCUBATION): active; positive
mutagenic call (Test System: AMES SALMONELLA TYPHIMURIUM, Strain/Indicator: YG7131, Metabolic Activation: NONE): active; positive
